Experimental findings from patent publication US20080300280A1, “Cyanobenzene Compounds for Combating Animal Pests” (priority 2005, published 2008) are described below.

Like-named read-outs stand apart in the source and are kept apart here.

Assay type in all cases: in vivo
In experiment [1] the test system is Cotton Aphid (aphis gossypii), mixed life stages. Briefly: Cotton aphid (Aphis gossypii), mixed life stages, leaf-dip test on cotton plants. To be noted: 120 h, read-out: mortality of cotton aphid in comparison with untreated controls. As for the experimental part:
(§1) The active compounds were formulated in a mixture of 50 vol.-% acetone:50 vol.-% water. A nonionic surfactant (Kinetic®) was included in the solution at a volume of 0.01% v/v.
(§2) In the following tests, the formulated solutions of the active compounds were diluted to an active ingredient concentration of 300 ppm and the diluted solutions were applied in the below mentioned tests.
II.1 Cotton Aphid (aphis gossypii), Mixed Life Stages
Cotton plants at the cotyledon stage were infested prior to treatment by placing a heavily infested leaf from the main aphid colony on top of each cotyledon. The aphids were allowed to transfer overnight and the host leaf was removed. The infested cotyledons were then dipped and agitated in the test solution for 3 seconds and allowed to dry in a fume hood. Test plants were maintained under fluorescent lighting in a 24-hr photoperiod at 25° C. and 20-40% relative humidity. Aphid mortality on the treated plants, relative to mortality on untreated check plants, was determined after 5 days.

The subject of experiment [2] is Green Peach Aphid (Myzus persicae), mixed life stages. The experiment in a line: Green peach aphid (Myzus persicae), mixed life stages, leaf-dip test on bell pepper plants. To be noted: 120 h, read-out: mortality of green peach aphid in comparison with untreated controls. As for the experimental part: as §1, §2
II.2 Green Peach Aphid (Myzus persicae), Mixed Life Stages
Bell pepper plants at the first true-leaf stage were infested prior to treatment by placing heavily infested leaves from the main aphid colony on top of the treatment plants. The aphids were allowed to transfer overnight to accomplish an infestation of 30-40 aphids per plant and the host leaves were removed. The infested leaves of the test plants were then dipped and agitated in the test solution for 3 seconds and allowed to dry in a fume hood. Test plants were maintained under fluorescent lighting in a 24-hr photoperiod at 25° C. and 20-40% relative humidity. Aphid mortality on the treated plants, relative to mortality on untreated check plants, was determined after 5 days.

For the next experiment, the system named is Bean Aphid (Aphis fabae). Briefly: Bean aphid (Aphis fabae), plant-dip test on nasturtium plants. To be noted: 72 h, read-out: mortality of bean aphid in comparison with untreated controls. As for the experimental part:
as §1, §2
11.3 Bean Aphid (Aphis fabae)
Nasturtium plants grown in Metro mix in the 1st leaf-pair stage (variety ‘Mixed Jewel’) were infested with approximately 2-30 laboratory-reared aphids by placing infested cut plants on top of the test plants. The cut plants were removed after 24 hr. Each plant was dipped into the test solution to provide complete coverage of the foliage, stem, protruding seed surface and surrounding cube surface and allowed to dry in the fume hood. The treated plants were kept at about 25° C. with continuous fluorescent light. Aphid mortality is determined after 3 days.

Setting [3] is: 300 ppm, infested cotton cotyledons dipped 3 seconds, after 5 days.
Where [4] appears, read: 300 ppm, infested bell pepper leaves dipped 3 seconds, after 5 days.
[5] abbreviates: 300 ppm, infested nasturtium plants dipped, after 3 days.

In general, mortality refers to the percentage killed. On to `Cc1cccc(S(=O)(=O)N2CCCCC2=O)c1C#N` [Example 19], for which the mortality at 300 ppm in experiment [1] (setting [3]) was at least 86%.

As for `Cc1cccc(S(=O)(=O)N=S2CCCC2)c1C#N` [Example 38, 2-Cyano-3-methyl-N-(tetrahydro-thiphophen-1-ylidene)benzenesulfonamide], the mortality at 300 ppm (in experiment [1] (setting [3]); in experiment [2] (setting [4]); in the experiment on Bean Aphid (Aphis fabae) (setting [5])) was at least 86% throughout.

`CCN(C(=O)Oc1ccccc1)S(=O)(=O)c1cccc(C)c1C#N` [Example 26]: the mortality at 300 ppm (in experiment [1]; with Bean Aphid (Aphis fabae)) was at least 86% throughout.

For `Cc1cccc(S(=O)(=O)NC(=O)OCc2ccccc2)c1C#N` [Example 28, N-(Benzyloxycarbonyl)-2-cyano-3-methyl-benzenesulfonamide], the mortality at 300 ppm in experiment [1] and in experiment [2] was at least 86% in each case.

`Cc1cccc(S(=O)(=O)n2ccc(Br)c2)c1C#N` [Example 45, 2-Methyl-6-(3-bromo-pyrrole-1-sulfonyl)-benzonitrile]: the mortality at 300 ppm in experiment [1] (setting [3]) and in experiment [2] (setting [4]) was at least 86% each time.

For `CC(=O)NS(=O)(=O)c1cccc(C)c1C#N` [Example 1], the mortality at 300 ppm in experiment [1] (setting [3]) and in experiment [2] (setting [4]) was at least 86% throughout.

`CCN(C(C)=O)S(=O)(=O)c1c(F)ccc(OC)c1C#N` [Example 16]: the mortality at 300 ppm in experiment [1] (setting [3]) and in experiment [2] (setting [4]) was at least 86% each time.

For `CCN(C(=O)C(F)(F)F)S(=O)(=O)c1cccc(C)c1C#N` [Example 6], the mortality at 300 ppm (in experiment [1] (setting [3]); in experiment [2] (setting [4]); with Bean Aphid (Aphis fabae) (setting [5])) was at least 86% in each case.

On to `N#Cc1c(OC(F)F)cccc1S(=O)(=O)n1cccc1` [Example 42], for which the mortality at 300 ppm (in experiment [1] (setting [3]); in experiment [2] (setting [4]); in the experiment with Bean Aphid (Aphis fabae) (setting [5])) was at least 86% in each case.

As to `CCOC(=NS(=O)(=O)c1cccc(C)c1C#N)OCC` [Example 31], the mortality at 300 ppm (in experiment [1] (setting [3]); in experiment [2] (setting [4]); with Bean Aphid (Aphis fabae) (setting [5])) was at least 86% throughout.

As for `Cc1cccc(S(=O)(=O)NC(=O)C(C)C)c1C#N` [Example 14], the mortality at 300 ppm (in experiment [1] (setting [3]); in experiment [2] (setting [4]); with Bean Aphid (Aphis fabae) (setting [5])) was at least 86% each time.

As for `C/C(=N\S(=O)(=O)c1cccc(C)c1C#N)C(C)(C)C` [Example 37, 2-Cyano-3-methyl-N-(1,2,2-trimethyl-propylidene)-benzenesulfonamide], the mortality at 300 ppm (in experiment [1] (setting [3]); in experiment [2] (setting [4]); in the experiment with Bean Aphid (Aphis fabae) (setting [5])) was at least 86% each time.

For `CCN(C(=O)c1ccccc1)S(=O)(=O)c1cccc(C)c1C#N` [Example 17], the mortality at 300 ppm (in experiment [1] (setting [3]); in the experiment on Bean Aphid (Aphis fabae) (setting [5])) was at least 86% in each case.

Take `CCC(=O)NS(=O)(=O)c1cccc(C)c1C#N` [Example 13]: the mortality at 300 ppm (in experiment [1] (setting [3]); in experiment [2] (setting [4]); in the experiment with Bean Aphid (Aphis fabae) (setting [5])) was at least 86% in each case.

Take `Cc1cccc(S(=O)(=O)/N=C/N(C)C)c1C#N` [Example 35, 2-Cyano-3-methyl-N-dimethylaminomethylene-benzenesulfonamide]: the mortality at 300 ppm (in experiment [1] (setting [3]); in experiment [2] (setting [4]); in the experiment on Bean Aphid (Aphis fabae) (setting [5])) was at least 86% throughout.

Take `Cc1cccc(S(=O)(=O)N(C(=O)C(F)(F)F)C(C)C)c1C#N` [Example 12]: the mortality at 300 ppm (in experiment [1] (setting [3]); in experiment [2] (setting [4]); in the experiment on Bean Aphid (Aphis fabae) (setting [5])) was at least 86% in each case.

On to `Cc1cccc(S(=O)(=O)N2CCCC2=O)c1C#N` [Example 18, 2-Methyl-6-(2-oxo-pyrrolidine-1-sulfonyl)benzonitrile], for which the mortality at 300 ppm (in experiment [1] (setting [3]); in the experiment with Bean Aphid (Aphis fabae) (setting [5])) was at least 86% each time.

For `CCC(=O)N(CC)S(=O)(=O)c1cccc(C)c1C#N` [Example 5], the mortality at 300 ppm (in experiment [1] (setting [3]); in experiment [2] (setting [4]); in the experiment with Bean Aphid (Aphis fabae) (setting [5])) was at least 86% in each case.

Regarding `CO/C(C)=N\S(=O)(=O)c1cccc(OC(F)F)c1C#N` [Example 36], the mortality at 300 ppm (in experiment [1] (setting [3]); in experiment [2] (setting [4]); in the experiment on Bean Aphid (Aphis fabae) (setting [5])) was at least 86% throughout.

`N#Cc1c(OC(F)F)cccc1S(=O)(=O)N=S1CCCC1` [Example 39]: the mortality at 300 ppm in experiment [1] (setting [3]) and in experiment [2] (setting [4]) was at least 86% each time.

In the case of `C=CC(=O)N(CC)S(=O)(=O)c1cccc(C)c1C#N` [Example 10], the mortality at 300 ppm in experiment [1] (setting [3]) was at least 86%.

For the compound `CCN(C(=O)Nc1ccccc1)S(=O)(=O)c1cccc(C)c1C#N` [Example 22, N-Ethyl-N-(2-cyano-3-methyl-benzenesulfonyl)-N′-phenyl urea], the mortality at 300 ppm in experiment [1] (setting [3]) and in experiment [2] (setting [4]) was at least 86% throughout.

Regarding `CCNC(=O)N(CC)S(=O)(=O)c1cccc(C)c1C#N` [Example 21], the mortality at 300 ppm (in experiment [1] (setting [3]); in experiment [2] (setting [4]); in the experiment on Bean Aphid (Aphis fabae) (setting [5])) was at least 86% each time.

In the case of `Cc1cccc(S(=O)(=O)n2cccc2)c1C#N` [Example 41, 2-Methyl-6-(pyrrole-1-sulfonyl)-benzonitrile], the mortality at 300 ppm (in experiment [1] (setting [3]); in experiment [2] (setting [4]); with Bean Aphid (Aphis fabae) (setting [5])) was at least 86% throughout.

With `CCN(C(C)=O)S(=O)(=O)c1cccc(C)c1C#N` [Example 2, N-Acetyl-N-ethyl-2-cyano-3-methyl-benzene-sulfonamide], the mortality at 300 ppm (in experiment [1] (setting [3]); in experiment [2] (setting [4]); in the experiment with Bean Aphid (Aphis fabae) (setting [5])) was at least 86% throughout.

Regarding `C#CCN(C(C)=O)S(=O)(=O)c1cccc(C)c1C#N` [Example 7], the mortality at 300 ppm (in experiment [1] (setting [3]); in experiment [2] (setting [4]); with Bean Aphid (Aphis fabae) (setting [5])) was at least 86% in each case.

As for `CC(=O)N(C(C)C)S(=O)(=O)c1cccc(C)c1C#N` [Example 9], the mortality at 300 ppm in experiment [1] (setting [3]) and in experiment [2] (setting [4]) was at least 86% throughout.

As for `Cc1cccc(S(=O)(=O)n2ccnc2)c1C#N` [Example 48, 2-Methyl-6-(imidazole-1-sulfonyl)-benzonitrile], the mortality at 300 ppm in experiment [1] (setting [3]) and in experiment [2] (setting [4]) was at least 86% in each case.

Regarding `CCC(C)NC(=O)N(CC)S(=O)(=O)c1cccc(C)c1C#N` (centres unmarked) [Example 24], in experiment [1] (setting [3]), the mortality at 300 ppm is at least 86%.

For `COc1cccc(S(=O)(=O)N(OC)C(C)=O)c1C#N` [Example 3], the mortality at 300 ppm in experiment [1] (setting [3]) and in experiment [2] (setting [4]) was at least 86% each time.

Take `COC(=NS(=O)(=O)c1cccc(C)c1C#N)OC` [Example 32, 2-Cyano-N-dimethoxymethylene-3-methyl-benzenesulfonamide]: the mortality at 300 ppm (in experiment [1] (setting [3]); in the experiment on Bean Aphid (Aphis fabae) (setting [5])) was at least 86% in each case.

Consider `Cc1cccc(S(=O)(=O)NC(=O)Oc2ccccc2)c1C#N` [Example 25], for which the mortality at 300 ppm (in experiment [1]; with Bean Aphid (Aphis fabae)) was at least 86% each time.

As for `CO/C(C)=N\S(=O)(=O)c1cccc(C)c1C#N` [Example 34, 2-Cyano-N-(1-methoxyethylidene)-3-methyl-benzenesulfonamide], the mortality at 300 ppm in experiment [1] (setting [3]) and in experiment [2] (setting [4]) was at least 86% in each case.

For the compound `CCN(C(C)=O)S(=O)(=O)c1cccc(OC(F)F)c1C#N` [Example 15], the mortality at 300 ppm (in experiment [1] (setting [3]); in experiment [2] (setting [4]); with Bean Aphid (Aphis fabae) (setting [5])) was at least 86% each time.

Consider `CCN(C(=O)NC(C)C)S(=O)(=O)c1cccc(C)c1C#N` [Example 23], for which the mortality at 300 ppm (in experiment [1] (setting [3]); in experiment [2] (setting [4]); in the experiment with Bean Aphid (Aphis fabae) (setting [5])) was at least 86% throughout.

For `C=CCOC(=O)N(CC)S(=O)(=O)c1cccc(C)c1C#N` [Example 27], the mortality at 300 ppm (in experiment [1]; in experiment [2]; with Bean Aphid (Aphis fabae)) was at least 86% in each case.

As to `CC(=O)OCc1ccn(S(=O)(=O)c2cccc(C)c2C#N)c1` [Example 44], the mortality at 300 ppm (in experiment [1] (setting [3]); in experiment [2] (setting [4]); in the experiment on Bean Aphid (Aphis fabae) (setting [5])) was at least 86% throughout.

As for `Cc1cccc(S(=O)(=O)N=S(C(C)C)C(C)C)c1C#N` [Example 40], the mortality at 300 ppm in experiment [1] (setting [3]) and in experiment [2] (setting [4]) was at least 86% throughout.

For the compound `CCO/C(=N\S(=O)(=O)c1cccc(C)c1C#N)NC(C)(C)C` [Example 30], in the experiment with Bean Aphid (Aphis fabae) (setting [5]), the mortality at 300 ppm is at least 86%.

Take `Cc1cccc(S(=O)(=O)n2ccc(CO)c2)c1C#N` [Example 43]: the mortality at 300 ppm in experiment [1] (setting [3]) and in experiment [2] (setting [4]) was at least 86% each time.
